Test results: US11224601B1, “Compounds that inhibits MCL-1 protein” (priority 2017, dated 2022)

What follows are molecules tested against recombinant human Mcl-1 (Mcl-1/Bim interaction) (Homo sapiens (Human), UniProt Q07820) (assay: biochemical). Conditions: cell free Mcl-1:Bim TR-FRET; read-out: Mcl-1 HTRF IC50.
Chain of recombinant human Mcl-1 (Mcl-1/Bim interaction) (Q07820 171-327): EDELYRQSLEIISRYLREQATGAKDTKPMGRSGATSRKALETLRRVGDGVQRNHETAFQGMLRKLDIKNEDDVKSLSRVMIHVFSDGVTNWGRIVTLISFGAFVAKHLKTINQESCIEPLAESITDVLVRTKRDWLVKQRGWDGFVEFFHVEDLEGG
Type: binding
In the case of `CCO[C@]1(CN2CCN(C(C)(C)C)CC2)/C=C/C[C@H](C)[C@@H](C)S(=O)(=O)NC(=O)c2ccc3c(c2)N(C[C@@H]2CC[C@H]21)C[C@@]1(CCCc2cc(Cl)ccc21)CO3` [Example 6, (1S,3′R,6′R,7′R,8′E,11′S,12′R)-7′-((4-tert-butyl-1-piperazinyl)methyl)-6-chloro-7′-ethoxy-11′,12′-dimethyl-3,4-dihydro-2H,15′H-spiro[naphthalene-1,22′-[20]oxa[13]thia[1,14]diazatetracyclo[14.7.2.0˜3,6˜.0˜19,24˜]pentacosa[8,16,18,24]tetraen]-15′-one 13′,13′-dioxide], the IC50 is reported as 79 pM. With `CO[C@@]1(CN2CCN(CC(=O)O)CC2)/C=C/C[C@H](C)[C@@H](C)S(=O)(=O)NC(=O)c2ccc3c(c2)N(C[C@@H]2CC[C@H]21)C[C@@]1(CCCc2cc(Cl)ccc21)CO3` [Example 270, (4-(((1S,3′R,6′R,7′S,8′E,11′S,12′R)-6-chloro-7′-methoxy-11′,12′-dimethyl-13′,13′-dioxido-15′-oxo-3,4-dihydro-2H-spiro[naphthalene-1,22′-[20]oxa[13]thia[1,14]diazatetracyclo[14.7.2.0˜3,6˜.0˜19,24˜]pentacosa[8,16,18,24]tetraen]-7′-yl)methyl)-1-piperazinyl)acetic acid] the IC50 was 35 pM. `CO[C@@]1(CN2CCN3CCN(S(C)(=O)=O)C[C@@H]3C2)/C=C/C[C@H](C)[C@@H](C)S(=O)(=O)NC(=O)c2ccc3c(c2)N(C[C@@H]2CC[C@H]21)C[C@@]1(CCCc2cc(Cl)ccc21)CO3` (stereo in doubt) [Example 228] was tested, and the IC50 was 200 pM. `CO[C@@]1(CN2CCN3CCN(C(C)=O)C[C@@H]3C2)/C=C/C[C@H](C)[C@@H](C)S(=O)(=O)NC(=O)c2ccc3c(c2)N(C[C@@H]2CC[C@H]21)C[C@@]1(CCCc2cc(Cl)ccc21)CO3` (single isomer, unassigned) [Example 226] showed an IC50 of 57 pM. With `C[C@@H]1[C@@H](C)C/C=C/C(O)(CN2CCN3CCCC[C@@H]3C2)[C@@H]2CC[C@H]2CN2C[C@@]3(CCCc4cc(Cl)ccc43)COc3ccc(cc32)C(=O)NS1(=O)=O` (single isomer, unassigned) [Example 243] the IC50 was 78 pM. `CCO[C@]1(CN2CCN(C(C)C)CC2)/C=C/C[C@H](C)[C@@H](CCOC)S(=O)(=O)NC(=O)c2ccc3c(c2)N(C[C@@H]2CC[C@H]21)C[C@@]1(CCCc2cc(Cl)ccc21)CO3` [Example 16, (1S,3′R,6′R,7′R,8′E,11′S,12′R)-6-chloro-7′-ethoxy-12′-(2-methoxyethyl)-11′-methyl-7′-((4-(1-methylethyl)-1-piperazinyl)methyl)-3,4-dihydro-2H,15′H-spiro[naphthalene-1,22′-[20]oxa[13]thia[1,14]diazatetracyclo[14.7.2.0˜3,6˜.0˜19,24˜]pentacosa[8,16,18,24]tetraen]-15′-one 13′,13′-dioxide] gave an IC50 of 65 pM. `CO[C@]1(CN2CCN3CCS(=O)(=O)C[C@@H]3C2)/C=C/C[C@H](C)[C@@H](C)S(=O)(=O)NC(=O)c2ccc3c(c2)N(C[C@@H]2CC[C@H]21)C[C@@]1(CCCc2cc(Cl)ccc21)CO3` (stereo in doubt) [Example 219] was tested, and the IC50 was 73 pM. With `CO[C@]1(CN2CCN3CCS(=O)(=O)C[C@@H]3C2)/C=C/C[C@H](C)[C@@H](C)S(=O)(=O)NC(=O)c2ccc3c(c2)N(C[C@@H]2CC[C@H]21)C[C@@]1(CCCc2cc(Cl)ccc21)CO3` (stereo in doubt) [Example 215] the IC50 was 149 pM. `CO[C@@]1(CN2CCN3CCN(C(C)=O)C[C@@H]3C2)/C=C/C[C@H](C)[C@@H](C)S(=O)(=O)NC(=O)c2ccc3c(c2)N(C[C@@H]2CC[C@H]21)C[C@@]1(CCCc2cc(Cl)ccc21)CO3` (stereo in doubt) [Example 214] was tested, and the IC50 was 71 pM.
